Test results: patent US20110269790A1, “NOVEL THIENOPYRIDINES AS PHARMACOLOGICALLY ACTIVE AGENTS” (priority 2009, published 2011)

Experiments:
rats [1] = assay: Acute oral toxicity, sighting study in rats; type: in vivo, rat; settings: for Toxic symptoms and mortality, sighting study: single oral doses 5, 50, 500, and 2000 mg/kg, observed 14 days
Procedure: In the series of thioenopyridine derivatives compounds BN-4, BN-14 and BN-16 show good antiinflammatory potential in all models tested. […] Acute Oral Toxicity Study was conducted following OECD guidelines by fixed dose method adopted by OECD (420). The study involved preliminary sighting using small number of animals in order to derive the dose effect relation for toxicity and mortality and to provide information on dose selection for the main study.
In the preliminary sighting study, the effect of various dosed administered to single animals of each sex was investigated in a sequential manner. The sighting study generally yields information on the dose-toxicity relationship including an estimate of the minimum lethal dose. In the main study, the test article is administered to groups of 5 males and 5 female animals at one of the fixed doses (5, 50, 500 and 2000 mg/Kg). The dose is derived from the sighting study. It is immediately below that which is expected to result in mortality. If evident toxicity is not seen at the chosen dose level, the substance should be retested at the next higher dose level. If at the initial dose level, animals die, or a severe toxicity reaction requires removal of animals from the study for animal welfare reasons, the substance is retested at the next lower dose level. Consideration of data from the both sighting study and the main study enabled a judgment to be made on determination of maximum tolerated dose.
Sighting Study: Animals were fasted overnight. Following period of fasting, the animals were weighed and were administered the test articles by oral route. After the test substance was administered food was withheld for further 3 to 4 hrs. In the sighting study, the effect of various doses was investigated in single animals of each sex. Dosing was sequential allowing at least 24 hrs before dosing the next animal. All animals were carefully observed for signs and symptoms of toxicity continuously up to 24 hrs and later up to 7 days. […] In this sighting study, the dose that produced evident toxicity but not death was identified. […]

Nitric oxide = Nitric oxide (nitrite, Griess) estimation in LPS treated RAW 264.7 macrophages; type: cell-based, mouse; settings: 24 hrs, different concentrations, vs LPS treated control
Procedure: Cell Culture and Treatment: The RAW 264.7 (mouse macrophages, national center for cellular sciences) cells were grown in plastic T-25 culture flask in Dulbeccos modified eagles medium (DMEM) without phenol red supplemented with 10% heat activated serum (heating at 57° C. for 30 minutes, 100 μg per ml penicillin, 200 μg per ml streptomycin, 2 mmol L-glutamine, 1% antibiotic/Anti mycotic solution (GIBCO/SRL) under 5% co2 with 85% relative humidity at 37° C. After 2-3 days cells were removed from the culture flask by tripsinizing the cells with Trypsin EDTA solution. Cell count and viability was performed using a standard Trypan blue dye exclusion method. The cell concentration was adjusted to 1×10^5 cells per ml in each well with the same media in the 12 well plates. After 24 hrs incubation the media was removed from each well replaced with a fresh one containing different concentrations (50 μg, 25 μg, 12.5 μg) of the synthetic compounds BN-4, BN-14 and BN-16 along with 10 μg/ml LPS, where as normal control (PBS) and positive controls (Dexa, Roli) LPS (10 μg/ml), were added. 200 μl of media from each well was collected at 6 hrs for the estimation of TNF-α and after 24 hrs for Nitric Oxide respectively. The adherent cells, which remained after removing the media was subjected to […] for determining the cytotoxicity of compounds at selected concentrations
Measurement of Nitrite: For determination of nitric oxide concentration, the stable conversion product of nitric oxide, nitrite (NO^2−) was measured using the Griess reagent (Chi et, al., 2001). After 24 hrs incubation a volume of 100 μl of supernatant from each well of cell culture plates was transferred to 96 well micro plate and equal volume of Griess reagent (1% sulphanilamide, 0.1% N-(1-naphthyl ethylene diamine hydrochloride), 2.5% H3PO4) was then added to the supernatant at room temperature. The absorbance at 570 nm was determined in multi detection Microplate reader after 10 min. Nitric oxide concentration was calculated using standard curve.

rats [2] = assay: Collagen induced arthritis; type: in vivo, rat; settings: collagen induced study; BN compounds 100 mg/kg, Indomethacin 2.5 mg/kg
Excerpt: Group I—Normal Control; Group II—Arthritic control; Group III—Arthritic rats administered with Synthetic compound BN-4; Group IV—arthritic rats administered with compound BN-14; Group V—arthritic rats administered with BN-16; Group VI—arthritic rats administered with standard drug indomethacin. […] The test and indomethacin doses continued up to 21 days in FCA induced model and 24 days in collagen induced model. […] Before sacrificing the animals, blood was collected and used for estimation of total leukocyte count, TNF-α and IL-1β. […] In collagen induced study the total WBC count was analyzed by using cell counter and count as follows; […]

Wistar rats = assay: Antidiabetic activity by starch loaded model; type: in vivo, rat; settings: for % Increase in glucose, 30 min / Blood glucose level, 30 min: 30 min after starch; for % Increase in glucose, 30 min / Blood glucose level, 30 min / % Increase in glucose, 60 min / Blood glucose level, 60 min / % Increase in glucose, 90 min / Blood glucose level, 90 min / % Increase in glucose, 120 min / Blood glucose level, 120 min / Blood glucose level, 0 min: test compounds 100 mg/kg, Acarbose 10 mg/kg oral; for Blood glucose level, 30 min / Blood glucose level, 60 min / Blood glucose level, 90 min / Blood glucose level, 120 min / Blood glucose level, 0 min: in mg/dL (unit assumed); for % Increase in glucose, 60 min / Blood glucose level, 60 min: 60 min after starch; for % Increase in glucose, 90 min / Blood glucose level, 90 min: 90 min after starch; for % Increase in glucose, 120 min / Blood glucose level, 120 min: 120 min after starch; for Blood glucose level, 0 min: basal, prior to dosing
Excerpt: Experimental Animals—Wistar rats of either sex were used for the present study. Animals selected for use in the study were of uniform age and body weight. A minimum of 40 rats, from which eventually 20 rats were selected. Their body weights were in the range of 150-180 gm. The health status of the animals was ascertained by a veterinary surgeon. […] Animals were acclimatized for at least two weeks prior to start of the study. The animals were provided with pellet diet manufactured by NIN, HYDERABAD, India and drinking water adlibitum.
Compound Preparation The required quantity of the synthetic compounds were weighed and made suspension with gum acacia (2%). The test compounds were administered to all rats by per oral route. Acarbose suspension was also prepared in gum acasia suspension and given by oral route.
Antidiabetic activity by Starch model: The method of Rao et al., 2009;Tiwari et al was employed. Animals were fasted over night (12 hrs). Basal blood glucose levels were estimated for all the animals prior to dosing in test and standard groups. This was designated as “0” min reading. […] After test compounds administration animals in all three groups received Starch aqueous solution (2 gm/kg body weight). Blood glucose levels were monitored at 30, 60, 90 and 120 min after the administration of Starch in all the three groups. The percentage of increase in, blood glucose levels was calculated with respect to the control group at each time point.

Which results are given for `Nc1c2c(nc3sc4c(c13)CCC4)CCCCC2` [BN-16, 1,2,3,6,7,8,9,10-Octahydrocyclohepta[b]cyclopenta[4,5]thieno[3,2-e]pyridine-11-amine]?
Toxic symptoms and mortality, sighting study (rats [1]): do not show any toxic symptoms and mortality; Release of NO from murine macrophage cell line (Nitric oxide): significantly (p<0.01) suppressed; Total WBC count (rats [2]): 15.70±1.28

`COc1ccc2c(c1)c(CC(=O)O)c(C)n2C(=O)c1ccc(Cl)cc1` [Indomethacin, reference compound] was tested. Which “Total WBC count” value (rats [2]) did it give?
Its value is 19.70±2.23.

How did the “% Increase in glucose, 30 min” value (Wistar rats) turn out when `CC1CCc2c(nc3sc4c(c3c2N)CCC4)C1` (centres unmarked) [BN-15, 7-Methyl-2,3,6,7,8,9-hexahydro-1H-cyclopenta[4,5]thieno[2,3-b]quinolin-10-amine] was run?
Its value is 42.13%.

What about the “Blood glucose level, 30 min” value (Wistar rats) of the same compound?
The value was 115.50.

And the “% Increase in glucose, 60 min” value (Wistar rats)?
The value was 51.64%.

And the “Blood glucose level, 60 min” value (Wistar rats)?
The value was 123.03.

What about the “% Increase in glucose, 90 min” value (Wistar rats) of the same compound?
The value was 39.76%.

And the “Blood glucose level, 90 min” value (Wistar rats)?
Its value is 113.75.

What about the “% Increase in glucose, 120 min” value (Wistar rats) of the same compound?
Its value is 42.80%.

What about the “Blood glucose level, 120 min” value (Wistar rats) of the same compound?
The value was 116.05.

What about the “Blood glucose level, 0 min” value (Wistar rats; starch 2 gm/kg) of the same compound?
Its value is 81.45.

`Nc1c2c(nc3sc4c(c13)CCC4)CCCCCC2` [BN-17, 2,3,6,7,8,9,10,11-Octahydro-1H-cycloocta [b]cyclopenta[4,5]thieno[3,2-e]pyridin-12-amine] was tested. Which “% Increase in glucose, 30 min” value (Wistar rats) did it give?
Its value is 51.74%.

What about the “Blood glucose level, 30 min” value (Wistar rats) of the same compound?
The value was 124.60.

What about the “% Increase in glucose, 60 min” value (Wistar rats) of the same compound?
The value was 52.35%.

What about the “Blood glucose level, 60 min” value (Wistar rats) of the same compound?
Its value is 125.13.

What about the “% Increase in glucose, 90 min” value (Wistar rats) of the same compound?
The value was 49.67%.

And the “Blood glucose level, 90 min” value (Wistar rats)?
Its value is 123.13.

And the “% Increase in glucose, 120 min” value (Wistar rats)?
Its value is 49.64%.

What about the “Blood glucose level, 120 min” value (Wistar rats) of the same compound?
Its value is 122.80.

And the “Blood glucose level, 0 min” value (Wistar rats; starch 2 gm/kg)?
Its value is 82.40.

`Cc1sc2nc3c(c(N)c2c1C)CCCCC3` [BN-4, 2,3-dimethyl-6,7,8,9-tetrahydro-5H-cyclohepta[b]thieno[3,2-e]pyridin-4-amine] was tested. Which “Toxic symptoms and mortality, sighting study” value (rats [1]) did it give?
The value was “do not show any toxic symptoms and mortality”.

And the “Release of NO from murine macrophage cell line” value (Nitric oxide)?
The value was “significantly (p<0.01) suppressed”.

What about the “Total WBC count” value (rats [2]) of the same compound?
The value was 13.57±0.63.

For `Nc1c2c(nc3sc4c(c13)CCC4)CCC2` [BN-13, 1,2,3,6,7,8-hexahydrocyclopenta [b]cyclopenta[4,5] thieno[3,2-e]pyridin-9-amine], which “Reduction in percentage increase in blood glucose levels” value (Wistar rats; 100 mg/kg oral, starch 2 gm/kg, 30-120 min, vs diabetic control) is on record?
The value was “greatest inhibitory activity”.

And the “% Increase in glucose, 30 min” value (Wistar rats)?
Its value is 32.75%.

And the “Blood glucose level, 30 min” value (Wistar rats)?
Its value is 108.37.

What about the “% Increase in glucose, 60 min” value (Wistar rats) of the same compound?
The value was 35.89%.

And the “Blood glucose level, 60 min” value (Wistar rats)?
Its value is 110.82.

What about the “% Increase in glucose, 90 min” value (Wistar rats) of the same compound?
The value was 30.53%.

And the “Blood glucose level, 90 min” value (Wistar rats)?
Its value is 106.50.

And the “% Increase in glucose, 120 min” value (Wistar rats)?
The value was 30.27%.

What about the “Blood glucose level, 120 min” value (Wistar rats) of the same compound?
The value was 106.30.

And the “Blood glucose level, 0 min” value (Wistar rats; starch 2 gm/kg)?
Its value is 81.67.

With `Nc1c2c(nc3sc4c(c13)CCC4)CCCC2` [BN-14, 2,3,6,7,8,9-Hexahydro-1H-cyclopenta[4,5]thieno[2,3-b]quinolin-10-amine] as the compound, how does the “Toxicity, sighting study” value (rats [1]; doses 2000 and 1250 mg/kg in rats) read?
Its value is “toxic”.

What about the “Release of NO from murine macrophage cell line” value (Nitric oxide) of the same compound?
The value was “significantly (p<0.01) suppressed”.

What about the “Total WBC count” value (rats [2]) of the same compound?
Its value is 14.88±2.64.

And the “% Increase in glucose, 30 min” value (Wistar rats)?
Its value is 37.65%.

What about the “Blood glucose level, 30 min” value (Wistar rats) of the same compound?
Its value is 103.83.

What about the “% Increase in glucose, 60 min” value (Wistar rats) of the same compound?
The value was 36.02%.

What about the “Blood glucose level, 60 min” value (Wistar rats) of the same compound?
The value was 102.80.

And the “% Increase in glucose, 90 min” value (Wistar rats)?
Its value is 45.00%.

And the “Blood glucose level, 90 min” value (Wistar rats)?
The value was 109.33.

What about the “% Increase in glucose, 120 min” value (Wistar rats) of the same compound?
Its value is 32.21%.

And the “Blood glucose level, 120 min” value (Wistar rats)?
Its value is 99.83.

And the “Blood glucose level, 0 min” value (Wistar rats; starch 2 gm/kg)?
The value was 75.5.
